Experiments:
[1] = tested on: H. virescens; assay: Effect of Trypan Blue in diet on rate of feces production, third instars; type: in vivo, Heliothis virescens; details: no Bt, confidence interval in brackets
Experimental: The blue diet used in the feeding disruption bioassay is an agar based insect meal containing 20 mg of Trypan Blue (Direct Blue 14; Matheson Coleman & Bell, Norwood, Ohio) per 100 ml of standard artificial diet, and containing different concentrations of CryIAc (MVP, Mycogen). Larvae feeding on this colored diet produced blue feces which were easily distinguished by observation from feces derived from other food sources. Assays were conducted in 1-ounce clear plastic cups (Solo Cup Company, Urbana, Ill.; approximately […] in diameter and ¾ inches high) fitted with white cardboard tops, which are routinely used for insect rearing in the inventors' laboratories. The clear plastic allowed for the observation of blue feces without opening the container.
The rate of feces production was examined for third instars of both the Wake (Bt susceptible) and YHD2 (Bt resistant) strains of H. virescens, to examine the effects of adding Trypan Blue to the standard artificial diet (the “Blue diet”). Wake budworms produced 30.6 ([…], 27.6-33.6) fecal pellets/hour/15 larvae on regular diet, and 25.5 (22.5-28.5) fecal pellets/hour/15 larvae on Trypan Blue diet. This difference, although small, was statistically significant as indicated by a significant diet×time interaction (F=6.05; df=1,24; P=0.0215) (PROC GLM procedure, SAS 1991). (Data not shown). […]

[2] = Octanol-water partition coefficient (Kow); type: physicochemical; details: method of Leo et al. (1971), mean of 3 replicates
[3] = tested on: tobacco budworm neonates; assay: Larval feeding disruption assay for spinosad resistance; type: in vivo, Heliothis virescens; details: 1.6 μg active ingredient per ml diet, 24 h
Experimental: The Bt feeding disruption assay described above was modified to monitor spinosad resistance in tobacco budworms. Trypan Blue (Direct Blue 14, Matheson Coleman and Bell, Norwood, Ohio) was blended into artificial diet (described above) at the rate of 20 mg of dye per 100 ml diet. This diet also was formulated with 1.6 μg of spinosad active ingredient per ml diet. The spinosad was added to the diet as part of a 44.2% aqueous formulation provided to us by Dr. Clyde Sorenson (NC State University, Raleigh, N.C.). […] The blue indicator diet with spinosad was dispensed at the rate of 100 μl per well into 8-well microtitre plate strips (Nalge Nunc Int., Napersville, Ill.). The wells were sealed with strip caps (Nunc). In order to reduce condensation within the wells, caps were punctured twice with a #3 insect pin.
Hv Franklin (spinosad susceptible) and spinosad resistant (selected) neonates of the tobacco budworm were used in all assays and were added to the assay diet within 24 h of hatch. Hv Franklin has been previously shown to be representative of other field collected H. virescens strains in spinosad toxicity. Selection of our laboratory colony of tobacco budworms which were originally collected from various locations in North Carolina, with technical spinosad applied topically each generation, produced insects that were highly resistant to spinosad.
Bioassays were conducted at 27±1° C. with a 14:10 L:D cycle, and the number of blue fecal pellets produced were counted after a 24 h exposure of the neonates to the diet. Results were taken from two replicates consisting of 24 insects per replicate.

[4] = Hv spinosad selected (resistant) neonates

## Cc1cc(-c2ccc(/N=N/c3c(S(=O)(=O)O)cc4cc(S(=O)(=O)O)cc(N)c4c3O)c(C)c2)ccc1/N=N/c1c(S(=O)(=O)O)cc2cc(S(=O)(=O)O)cc(N)c2c1O [Trypan Blue]
[1]; Wake third instars
  rate of fecal pellet production on Trypan Blue diet: 25.5 (22.5-28.5) fecal pellets/hour/15 larvae
[1]; YHD2 third instars
  rate of fecal pellet production on Trypan Blue diet: 34.9 (32.5-37.3) fecal pellets per hour per 15 larvae

## COC(=O)/C=C(\C)CC/C=C(\C)CC[C@H]1OC1(C)C [juvenile hormone III]
[2]
  Octanol-water coefficient (Kow): 165.33

## CC(C)CCC[C@@H](C)[C@H]1CC[C@H]2[C@@H]3CC=C4C[C@@H](O)CC[C@]4(C)[C@H]3CC[C@]12C [cholesterol]
[2]
  Octanol-water coefficient (Kow): 0.46

## spinosad
[3]; [4]
  percentage producing 3-5 pellets: 2.3%
  percentage producing >2 fecal pellets: 100%
[3]; susceptible Hv Franklin neonates
  percentage producing 0-2 fecal pellets: 100%
